Measured values from US12589143B2, “Human anti-PD-L1 peptide vaccines and methods of their use” (priority 2019, dated 2026).
Where no end group is shown, it is not given here.

System: CT26/HER-2 carcinoma cell line
Assay: CT26/HER-2 tumor challenge in immunized Balb/c mice
Format: in vivo
Conditions: for tumor growth inhibition: CT26/HER-2, day 16
Source text: (PMID: 29337305). […] Balb/c mice 6-8 weeks old, were immunized with MVF-peptide immunogens emulsified in ISA 720 with nor-MDP three times and three weeks apart. Mice were immunized with MVF-PD-L1 vaccine constructs [PD-L1(36-53), PD-L1(50-67), PD-L1(95-112), PD-L1(130-147)] prior to tumor challenge. Blood was collected weekly and sera tested for antibody titers by ELISA. Two weeks after the third immunization (3Y), the mice were engrafted with CT26 WT tumor cells 10^5 per mouse Control mice were treated twice weekly with PBS as negative control and twice weekly with anti-mPD-L1 mAb (10F.9G2) as positive control starting 2 days after tumor challenge. Tumor growths were observed twice weekly and measured by calipers.
Vaccines were dissolved in water and emulsified in Montanide ISA 720 (1:1) and 50 μg nor-MDP (N-acetylglucosamine-3yl-acetyl-1-alanyl-d-isoglutamine). Female Balb/c mice (Charles River Laboratories) at the age of 5 to 6 week were immunized three times at 3-week intervals with 100 μg of each peptide vaccine, and 2 weeks after the third immunization, the mice were challenged s.c. with CT-26-HER2 neu tumor cells (100,000 per mouse).
Mice treated twice a week with anti-mouse PD-L1 MAb 10F.9G2 (Bio X Cell, West Lebanon, NH) 200 ug/dose was used as a positive control or purified mouse IgG from mouse sera (Sigma-Aldrich, St. Louis, Mo) as a negative control. Tumor growth was monitored for up to 21 days after challenge. During immunization, blood was drawn biweekly and used in ELISA to monitor Ab titers. The mice were euthanized at the end of treatment and tumors extracted and weighed samples of the tumors were saved for further study and for histological examination.
Two weeks after the third immunization (3Y), the mice were inoculated subcutaneously (s.c) with CT26 carcinoma cells (1×10^5 cells per mouse) and tumor formation was monitored on a daily basis afterwards. Mice treated with PBS served as negative control, and twice weekly treated mice with 200 μg/dose injections of anti-mouse PD-L1 monoclonal antibody (mAb clone 10F.9G2) served as positive control. Tumor growth was monitored daily and measured by caliper. […] PD-L1 B-cell epitope vaccines treatment had similar and significant reduction in tumor growth at day 16 post challenge as compared to negative control treatment with PBS (FIG. 19). […] Tumor sizes at various times are also shown in FIG. 20 and one-way analysis of variance (one-way ANOVA) followed by the Tukey's multiple comparisons test were used to compare data in multiple groups or data between groups.
We also analyzed the different isotypes of antibodies being generated by vaccination.
6-8 weeks old BALB/c mice (Charles River, Wilmington, MA) were used as standard animal models. Mouse CT26 colon carcinoma cell line was purchased from American Type Culture Collection Cells and were regularly cultured in RPMI1640 medium containing 10% FBS. CT26/HER2 cells were kindly provided by M. Penichet. Vaccines were dissolved in sterile water and emulsified in Montanide ISA 720 (1:1). Female Balb/c mice (Charles River Laboratories) at the age of 6-8 weeks were immunized three times at 3-week intervals with 100 μg of each peptide vaccine, and 2 weeks after the third immunization, the mice were challenged with CT26 and/or CT26/HER-2 tumor cells, which were implanted subcutaneously (s.c) on the right flank (1×10^5 per mouse). 200 μg of rat α-mouse PD-L1 mAb 10F.9G2 (Bio X Cell, West Lebanon, NH) were administered intraperitoneally (i.p.), twice weekly following tumor inoculation in the control group. Mice were monitored and scored for the formation of palpable tumors on a daily basis and sacrificed if tumors became necrotic or exceeded the predetermined size of 2,000 mm^3. Tumor volumes were measured in cubic millimeters with calipers and calculated with the following formula: A×B^2×0.5, where A is the largest diameter, and B is the widest point perpendicular to length. […]

| Sequence | tumor growth inhibition | levels of lesions (CT26/HER-2) | percentage of tumor growth inhibition compared to negative control (CT26/HER-2) | tumor inhibition versus PBS (CT26/HER-2, Balb/c) | survival rate (CT26/HER-2, Kaplan-Meier method) | 50% mice survival time / survival rate (CT26 HER2, compared to the other PD-L1 epitopes) |
| --- | --- | --- | --- | --- | --- | --- |
| KLLSLIKGVIVHRLEGVEGPSLFVHGEEDLKVQHSSYRQR (KLLSLIKGVIVHRLEGVEGPSLFVHGEEDLKVQHSSYRQR-NH2) [PD-L1(50)] | strongest tumor growth inhibition | – | – | – | – | – |
| KLLSLIKGVIVHRLEGVEGPSLLIVYWEMEDKNIIQFVHG (KLLSLIKGVIVHRLEGVEGPSLLIVYWEMEDKNIIQFVHG-NH2) [PD-L1(36)] | strongest tumor growth inhibition | – | – | – | – | – |
| KLLSLIKGVIVHRLEGVEGPSLVTSEHELTCQAEGYPKAE (KLLSLIKGVIVHRLEGVEGPSLVTSEHELTCQAEGYPKAE-NH2) [PD-L1(130)] | strongest tumor growth inhibition | lowest levels of lesions | Significant higher percentage of tumor growth inhibition | superior tumor growth inhibition | highest survival rate | better survival rate |
| KLLSLIKGVIVHRLEGVEGPSLYRCMISYGGADYKRITVK (KLLSLIKGVIVHRLEGVEGPSLYRCMISYGGADYKRITVK-NH2) [PD-L1(95)] | strongest tumor growth inhibition | – | – | – | – | – |
